From patent US20130288897A1, “SYNERGISTIC PESTICIDAL COMPOSITIONS” (Dow AgroSciences LLC, priority 2012, published 2013)
“And” between values parts separate entries of the source, which are not always exact repeats. Identical values can stand only once.

System: cotton aphid (CA) Aphis gossypii
Assay: Cotton aphid track-sprayer test on cotton: Compound A with glufosinate (Liberty) and AMS, rates 0.4, 0.1 and 0.025 g/Ha (Example XVIII)
Format: in vivo
Conditions: for % control Negatives to zero / CA Counts / Colby Predicted Values: Rep 1-6
Method: Glyphosate resistant cotton plants (Gossypium hirsutum, cv ‘DP493’) were trimmed to 1 true leaf and infested with mixed stages of cotton aphid (CA) Aphis gossypii 24 hours prior to application. Mixed developmental stage CA were infested onto the upper surface of each treated leaf by transferring infested foliage from an insectary colony. Each plant was infested with approximately equal numbers of CA based on visual estimation of aphid density on the infested material. Infested plants were held in the growth chamber (L:D 16:8 and 25° C.). Glufosinate (Liberty®, Bayer CropScience, Monheim am Rhein, Germany) was mixed with water at a rate equivalent to 5 ml/L (0.4 qt/Ac). […] High rate Compound A concentrations were created by diluting Compound A technical material with acetone to achieve a 20 ppm solution. […] […] […] Nozzle height above the canopy was held constant at ca. 30 cm. Plants were evaluated after 3 days from the time of infestation by counting all live cotton aphids on each plant.

[1] = 0.05 g In./HA + Lib. 0.005 ml/ml
[2] = 0.05 g In./HA + Lib. 0.005 ml/ml + AMS 18 g/L
[3] = 0.2 g In./HA + Lib. 0.005 ml/ml
[4] = 0.2 g In./HA + Lib. 0.005 ml/ml + AMS 18 g/L
[5] = 0.8 g In./HA + Lib. 0.005 ml/ml
[6] = 0.8 g In./HA + Lib. 0.005 ml/ml + AMS 18 g/L
[7] = 0.025 g In./HA + Lib. 0.005 ml/ml
[8] = 0.025 g In./HA + Lib. 0.005 ml/ml + AMS 18 g/L
[9] = 0.1 g In./HA + Lib. 0.005 ml/ml
[10] = 0.1 g In./HA + Lib. 0.005 ml/ml + AMS 18 g/L
[11] = 0.4 g In./HA + Lib. 0.005 ml/ml
[12] = 0.4 g In./HA + Lib. 0.005 ml/ml + AMS 18 g/L

Structure (SMILES): O=[N+]([O-])NC1=NCCN1Cc1ccc(Cl)nc1 [Imidacloprid, imidacloprid, reference compound]
- % Control (Negatives to zero) Ave [1]: 24.3%
- Colby Predicted Values Ave [1]: 45.1
- % Control (Negatives to zero) Ave [2]: 76.9%
- Colby Predicted Values Ave [2]: 51.7
- % Control (Negatives to zero) Ave (0.05 g In./HA, no Lib., no AMS): 19.0%
- % Control (Negatives to zero) Ave [3]: 27.0%
- Colby Predicted Values Ave [3]: 54.6
- % Control (Negatives to zero) Ave [4]: 54.3%
- Colby Predicted Values Ave [4]: 60.7
- % Control (Negatives to zero) Ave (0.2 g In./HA, no Lib., no AMS): 38.7%
- % Control (Negatives to zero) Ave [5]: 72.3%
- Colby Predicted Values Ave [5]: 86.1
- % Control (Negatives to zero) Ave [6]: 96.5%
- Colby Predicted Values Ave [6]: 88.0
- % Control (Negatives to zero) Ave (0.8 g In./HA, no Lib., no AMS): 80.0%
- % control Negatives to zero [2]: 84.6% and 71.0% and 86.9% and 48.9% and 79.9% and 89.9%
- CA Counts (0.2 g In./Ha + Liberty 0.005 ml/ml): 187 and 234 and 169 and 198 and 265 and 240
- CA Counts (0.2 g In./Ha, no Liberty, no AMS): 154 and 165 and 228 and 241 and 176 and 123
- % control Negatives to zero [5]: 87.5% and 73.3% and 71.0% and 78.3% and 69.2% and 54.7%
- Colby Predicted Values [5]: 81.9 and 81.5 and 94.8 and 78.1 and 94.0 and 86.3
- % control Negatives to zero [6]: 96.7% and 94.4% and 96.0% and 94.2% and 98.3% and 99.7%
- Colby Predicted Values [6]: 86.8 and 83.6 and 95.2 and 78.2 and 94.5 and 89.7
- % control Negatives to zero (0.8 g In./HA, no Lib., no AMS): 75.5% and 81.5% and 91.6% and 73.2% and 74.2% and 84.3%

Structure (SMILES): CC(c1ccc(C(F)(F)F)nc1)S(C)(=O)=NC#N (centres unmarked) [Compound A, [1-(6-Trifluoromethylpyridin-3-yl)ethyl](methyl)-oxido-λ^4-sulfanylidenecyanamide]
- % Control (Negatives to zero) Ave [7]: 54.2%
- Colby Predicted Values Ave [7]: 56.8
- % Control (Negatives to zero) Ave [8]: 85.6%
- Colby Predicted Values Ave [8]: 62.5
- % Control (Negatives to zero) Ave [9]: 76.7%
- Colby Predicted Values Ave [9]: 72.4
- % Control (Negatives to zero) Ave [10]: 89.7%
- Colby Predicted Values Ave [10]: 76.7
- % Control (Negatives to zero) Ave (0.1 g In./HA, no Lib., no AMS): 62.1%
- % Control (Negatives to zero) Ave [11]: 99.0%
- Colby Predicted Values Ave [11]: 98.2
- % Control (Negatives to zero) Ave [12]: 98.2%
- Colby Predicted Values Ave [12]: 98.4
- % Control (Negatives to zero) Ave (0.4 g In./HA, no Lib., no AMS): 97.3%
- % Control (Negatives to zero) Ave (0025 g In./HA, no Lib., no AMS): 39.5%
- % control Negatives to zero [8]: 70.0% and 95.4% and 97.0% and 89.1% and 65.9% and 96.2%
- CA Counts (0.025 g In./Ha, no Liberty, no AMS): 198 and 126 and 194 and 117 and 231 and 212
- % control Negatives to zero [9]: 58.2% and 79.2% and 98.0% and 58.5% and 82.6% and 84.0%
- Colby Predicted Values [9]: 74.4 and 70.0 and 71.8 and 78.3 and 93.2 and 46.6
- % control Negatives to zero [10]: 95.2% and 89.4% and 91.2% and 81.2% and 99.0% and 81.9%
- Colby Predicted Values [10]: 81.3 and 73.3 and 73.7 and 78.5 and 93.8 and 59.6
- % control Negatives to zero (0.1 g In./HA, no Lib., no AMS): 65.2% and 70.0% and 54.2% and 73.5% and 70.9% and 38.7%
- % control Negatives to zero [11]: 97.8% and 100.0% and 99.0% and 98.4% and 98.7%
- Colby Predicted Values [11]: 99.3 and 97.9 and 96.6 and 99.2 and 97.3
- % control Negatives to zero [12]: 98.2% and 100.0% and 98.3% and 92.7%
- Colby Predicted Values [12]: 99.0 and 99.4 and 98.1 and 96.6 and 99.3 and 97.9
- % control Negatives to zero (0.4 g In./HA, no Lib., no AMS): 98.2% and 99.3% and 96.6% and 95.8% and 96.7% and 96.9%
